Results: paper PMC3156385 (Chemical research in toxicology, 2011)

Tests used:
[1] = rats; cited from earlier work
P450 1A1 [2] = target: T1, P450 1A1 (Homo sapiens, UniProt P04798); assay: Spectral binding titration with purified recombinant P450 1A1; details: for ΔAmax/Ks / ΔAmax: Reverse Type I binding, 1 µM P450; for ΔAmax: means ± SE
T1 sequence (P04798 1-512): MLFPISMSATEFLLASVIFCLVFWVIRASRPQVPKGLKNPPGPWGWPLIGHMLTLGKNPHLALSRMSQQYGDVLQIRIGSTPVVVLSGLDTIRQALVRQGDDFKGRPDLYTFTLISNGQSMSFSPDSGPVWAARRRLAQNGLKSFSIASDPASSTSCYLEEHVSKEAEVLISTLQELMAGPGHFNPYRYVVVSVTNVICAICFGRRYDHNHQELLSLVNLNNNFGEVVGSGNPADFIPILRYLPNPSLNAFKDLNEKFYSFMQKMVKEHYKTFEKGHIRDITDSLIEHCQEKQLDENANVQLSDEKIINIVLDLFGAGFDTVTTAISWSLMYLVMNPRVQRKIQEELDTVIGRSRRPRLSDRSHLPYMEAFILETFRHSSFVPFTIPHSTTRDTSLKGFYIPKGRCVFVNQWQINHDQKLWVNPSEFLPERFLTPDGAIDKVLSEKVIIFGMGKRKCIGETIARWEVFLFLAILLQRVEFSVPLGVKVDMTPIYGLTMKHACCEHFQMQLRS

P450 2A13 [3] = target: T2, P450 2A13 (Homo sapiens, UniProt Q16696); assay: Spectral binding titration with purified recombinant P450 2A13; details: for ΔAmax/Ks / ΔAmax: Type I binding, 1 µM P450; for ΔAmax: means ± SE
T2 sequence (Q16696 1-494): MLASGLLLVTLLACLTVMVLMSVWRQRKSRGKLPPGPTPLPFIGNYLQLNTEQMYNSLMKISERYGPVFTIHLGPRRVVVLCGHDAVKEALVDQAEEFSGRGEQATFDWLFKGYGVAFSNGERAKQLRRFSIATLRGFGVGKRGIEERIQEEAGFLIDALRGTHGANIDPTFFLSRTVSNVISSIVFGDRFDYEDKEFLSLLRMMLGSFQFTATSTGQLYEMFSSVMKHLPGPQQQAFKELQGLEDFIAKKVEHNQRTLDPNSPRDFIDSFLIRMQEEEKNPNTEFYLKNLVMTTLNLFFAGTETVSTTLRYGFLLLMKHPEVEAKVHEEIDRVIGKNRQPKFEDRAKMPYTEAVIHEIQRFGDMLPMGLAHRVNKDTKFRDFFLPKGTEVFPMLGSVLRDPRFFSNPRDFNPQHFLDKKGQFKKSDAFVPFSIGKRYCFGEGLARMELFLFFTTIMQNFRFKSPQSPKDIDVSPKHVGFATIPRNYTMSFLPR

P450 1A1 [4] = target: T1, P450 1A1; assay: Inhibition of P450 1A1-dependent EROD activity; assay type: biochemical
P450 1B1 [5] = target: T3, P450 1B1 (Homo sapiens, UniProt Q16678); assay: Inhibition of P450 1B1-dependent EROD activity; assay type: biochemical
T3 sequence (Q16678 1-543): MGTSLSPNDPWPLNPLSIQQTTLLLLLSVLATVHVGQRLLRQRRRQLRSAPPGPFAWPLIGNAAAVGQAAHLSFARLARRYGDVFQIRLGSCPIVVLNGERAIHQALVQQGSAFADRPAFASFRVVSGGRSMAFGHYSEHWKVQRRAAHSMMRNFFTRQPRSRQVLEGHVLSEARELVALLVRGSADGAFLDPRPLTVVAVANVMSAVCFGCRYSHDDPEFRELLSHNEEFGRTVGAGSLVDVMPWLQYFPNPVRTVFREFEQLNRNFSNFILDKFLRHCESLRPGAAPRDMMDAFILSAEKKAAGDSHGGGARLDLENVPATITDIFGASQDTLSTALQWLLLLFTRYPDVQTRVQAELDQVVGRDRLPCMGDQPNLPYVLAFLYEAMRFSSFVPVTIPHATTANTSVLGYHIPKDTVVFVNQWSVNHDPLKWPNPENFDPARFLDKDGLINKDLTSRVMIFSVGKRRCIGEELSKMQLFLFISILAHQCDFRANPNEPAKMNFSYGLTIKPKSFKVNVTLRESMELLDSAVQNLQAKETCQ

P450 2A6 [6] = target: T4, P450 2A6 (Homo sapiens, UniProt P11509); assay: Inhibition of P450 2A6-dependent coumarin 7-hydroxylation; assay type: biochemical
T4 sequence (P11509 1-494): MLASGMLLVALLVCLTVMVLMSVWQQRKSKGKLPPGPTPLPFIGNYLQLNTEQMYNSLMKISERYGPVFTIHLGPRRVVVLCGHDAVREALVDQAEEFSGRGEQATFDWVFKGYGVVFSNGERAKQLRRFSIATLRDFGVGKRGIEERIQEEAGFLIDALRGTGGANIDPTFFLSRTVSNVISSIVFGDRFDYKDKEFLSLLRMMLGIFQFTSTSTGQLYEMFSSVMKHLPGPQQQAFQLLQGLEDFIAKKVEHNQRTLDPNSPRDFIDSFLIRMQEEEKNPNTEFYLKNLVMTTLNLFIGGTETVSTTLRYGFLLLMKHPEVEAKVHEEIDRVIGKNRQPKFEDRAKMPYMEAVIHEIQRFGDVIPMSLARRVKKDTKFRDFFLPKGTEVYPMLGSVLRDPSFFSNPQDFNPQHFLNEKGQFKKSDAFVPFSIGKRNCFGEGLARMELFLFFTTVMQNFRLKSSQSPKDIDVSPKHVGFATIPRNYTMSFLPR

P450 1A2 [7] = target: T5, P450 1A2 (Homo sapiens, UniProt P05177); assay: Inhibition of P450 1A2-dependent EROD activity; assay type: biochemical
T5 sequence (P05177 1-516): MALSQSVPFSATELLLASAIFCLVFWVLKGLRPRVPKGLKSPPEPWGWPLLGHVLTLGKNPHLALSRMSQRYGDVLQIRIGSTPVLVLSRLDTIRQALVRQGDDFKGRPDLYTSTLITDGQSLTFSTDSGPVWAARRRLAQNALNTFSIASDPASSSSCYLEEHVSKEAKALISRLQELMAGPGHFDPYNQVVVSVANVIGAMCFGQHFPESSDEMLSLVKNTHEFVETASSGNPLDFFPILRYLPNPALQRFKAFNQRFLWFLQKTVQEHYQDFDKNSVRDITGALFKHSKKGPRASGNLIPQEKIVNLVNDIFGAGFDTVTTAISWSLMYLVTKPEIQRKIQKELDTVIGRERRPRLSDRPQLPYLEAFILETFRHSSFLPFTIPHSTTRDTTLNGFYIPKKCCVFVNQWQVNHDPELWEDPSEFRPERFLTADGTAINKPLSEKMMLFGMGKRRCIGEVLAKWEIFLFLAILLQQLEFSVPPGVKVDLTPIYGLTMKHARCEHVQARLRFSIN

P450 1A2 [8] = target: T5, P450 1A2; assay: Spectral binding titration with purified recombinant P450 1A2; details: for ΔAmax/Ks / ΔAmax: Reverse Type I binding, 1 µM P450; for ΔAmax: means ± SE
P450 2A13 [9] = target: T2, P450 2A13; assay: Inhibition of P450 2A13-dependent coumarin 7-hydroxylation; assay type: biochemical
P450 2A6 [10] = target: T4, P450 2A6; assay: Spectral binding titration with purified recombinant P450 2A6; details: for ΔAmax/Ks / ΔAmax: Type I binding, 1 µM P450; for ΔAmax: means ± SE
P450 1B1 [11] = target: T3, P450 1B1; assay: Spectral binding titration with purified recombinant P450 1B1; details: for ΔAmax/Ks / ΔAmax: Reverse Type I binding, 1 µM P450; for ΔAmax: means ± SE

N#C[Se]Cc1ccc(C[Se]C#N)cc1 [p-[^14C]XSC, 1,4-[^14C]phenylenebis(methylene)selenocyanate]
cumulative percentage of radioactivity excreted in feces [1]: 75%
cumulative percentage of radioactivity excreted in urine [1]: 24%

N#C[Se]Cc1ccccc1C[Se]C#N [o-XSC, 1,2-phenylenebis(methylene)selenocyanate]
Kd (P450 1A1 [2]): 26000 ± 4600 nM
ΔAmax/Ks (P450 1A1 [2]): 0.77 × 10^−3
ΔAmax (P450 1A1 [2]): 20 ± 1.2 × 10^−3
Kd (P450 2A13 [3]): 750 ± 44 nM
ΔAmax/Ks (P450 2A13 [3]): 92.00 × 10^−3
ΔAmax (P450 2A13 [3]): 69 ± 0.49 × 10^−3
IC50 (P450 1A1 [4]): 110 ± 21 nM
IC50 (P450 1B1 [5]): 140 ± 27 nM
IC50 (P450 2A6 [6]): 2700 ± 340 nM
IC50 (P450 1A2 [7]): 390 ± 42 nM
ΔAmax/Ks (P450 1A2 [8]): 0.38 × 10^−3
ΔAmax (P450 1A2 [8]): 2.4 ± 0.20 × 10^−3
IC50 (P450 2A13 [9]): 1200 ± 130 nM
Kd (P450 2A6 [10]): 5100 ± 450 nM
ΔAmax/Ks (P450 2A6 [10]): 7.80 × 10^−3
ΔAmax (P450 2A6 [10]): 40 ± 0.82 × 10^−3
Kd (P450 1B1 [11]): 4600 ± 750 nM
ΔAmax/Ks (P450 1B1 [11]): 3.30 × 10^−3
ΔAmax (P450 1B1 [11]): 15 ± 0.51 × 10^−3

N#C[Se]Cc1ccc(C[Se]C#N)cc1 [p-XSC, 1,4-phenylenebis(methylene)selenocyanate]
Kd (P450 1A1 [2]): 19000 ± 1600 nM
ΔAmax/Ks (P450 1A1 [2]): 0.45 × 10^−3
ΔAmax (P450 1A1 [2]): 8.6 ± 0.24 × 10^−3
Kd (P450 2A13 [3]): 1500 ± 280 nM
ΔAmax/Ks (P450 2A13 [3]): 46.00 × 10^−3
ΔAmax (P450 2A13 [3]): 69 ± 2.6 × 10^−3
IC50 (P450 1A1 [4]): 260 ± 31 nM
IC50 (P450 1B1 [5]): 160 ± 9 nM
IC50 (P450 2A6 [6]): 6200 ± 550 nM
IC50 (P450 1A2 [7]): 630 ± 59 nM
Kd (P450 1A2 [8]): 12000 ± 1200 nM
ΔAmax/Ks (P450 1A2 [8]): 0.81 × 10^−3
ΔAmax (P450 1A2 [8]): 9.7 ± 0.40 × 10^−3
IC50 (P450 2A13 [9]): 1400 ± 210 nM
Kd (P450 2A6 [10]): 14000 ± 1900 nM
ΔAmax/Ks (P450 2A6 [10]): 2.20 × 10^−3
ΔAmax (P450 2A6 [10]): 31 ± 1.2 × 10^−3
Kd (P450 1B1 [11]): 3600 ± 330 nM
ΔAmax/Ks (P450 1B1 [11]): 5.83 × 10^−3
ΔAmax (P450 1B1 [11]): 21 ± 0.48 × 10^−3
